According to PubChem BioAssay AID2742 (NMMLSC, 2010):
Several values for one entry are separate records, joined by “and”; a condition that tells them apart may be missing. Equal values may be shown once. Activity calls are given as the source filed them.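 Rule for the calls: active = fitted half-maximal concentration for changing background-corrected GFP signal at or below a set limit; inactive = the rest.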

Assay: modulators of MEP2-GFP levels in yeast, dose response, S. cerevisiae, flow cytometry GFP, MLPCN hits (AID 2742);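 note: GFP tag reports level of MEP2 protein as a downstream target of TOR signalling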
Conditions: S. cerevisiae MEP2-GFP strain, flow cytometry fluorescence, 3 h; at 33 µM (top of the series)

Row | SMILES | GFP fluorescence (kMESF), higher = increase
1 | Cc1ccc(/C=N/Nc2ncc(Cl)cc2Cl)s1 | 4.77 kMESF (inactive)
2 | N/C(Cc1ccc(Cl)cc1)=N\OC(=O)c1cccc2ccccc12 | 3.73 kMESF (inactive)
3 | O=C(OCC(=O)N1CCN(C(=O)c2ccco2)CC1)c1cc(-c2ccc(F)cc2)nc2ccccc12 | 4.46 kMESF (inactive) and 3.18 kMESF (inactive)
4 | CC1=C/C(=N\OS(=O)(=O)c2ccccc2)C(C(C)C)=CC1=O | 8.38 kMESF (inactive)
5 | CC(C)(C)c1cc(C(c2cccnc2)N2CCN(CCO)CC2)cc(C(C)(C)C)c1O (stereo not drawn) | -4.66 kMESF (inactive)
6 | CC(C)(C)c1ccc(NC(=O)COC(=O)c2ccc([N+](=O)[O-])s2)cc1 | 2.3 kMESF (inactive)
7 | O=C1C=CC(=O)N1N(c1ccccc1)c1ccccc1 | 4.7 kMESF (inactive)
8 | Cc1ccc(-c2nc(C)sc2CC(=O)Nc2nnc(C)s2)cc1 | 1.85 kMESF (inactive)
9 | CCN(CC(=O)NC(C)(C)C)C(=O)COc1c(Cl)cc(Cl)c2ccc(C)nc12 | 6.41 kMESF (inactive)
10 | O=C(Nc1ccc(O)cc1)C1CCCN1S(=O)(=O)c1ccc(F)cc1 (stereo not drawn) | 1.62 kMESF (inactive)
11 | O=C(C#Cc1ccccc1)c1ccco1 | 5.37 kMESF (inactive)
12 | COc1ccc(C2(C)ON(c3ccccc3C(F)(F)F)C2=O)cc1 (stereo not drawn) | 2.87 kMESF (inactive)
13 | CCCCC(=O)NNC(=S)NC(=O)c1ccc(C)cc1 | 4.34 kMESF (inactive)
14 | COc1ccc(N=Cc2nc(-c3ccccc3)oc2OC(=O)c2ccccc2)cc1 | 2.68 kMESF (inactive)
15 | C=CCN1C(=O)/C(=C/c2cccs2)C(=O)NC1=S | 3.81 kMESF (inactive)
16 | Oc1cc(-c2ccc(N3CCCCC3)nc2)cc2cccnc12 | 3.04 kMESF (inactive)
17 | CC(=O)[C@]1(O)Cc2c(O)c3c(c(O)c2[C@@H](O[C@H]2C[C@H](N)[C@H](O)[C@H](C)O2)C1)C(=O)c1ccccc1C3=O | 4.71 kMESF (inactive)
18 | O=C(COc1ccccc1)NNC(=S)NC(=O)c1ccccc1 | 2.59 kMESF (inactive)
19 | O=C(Nc1nnc(-c2ccc(F)cc2)o1)c1cccc([N+](=O)[O-])c1 | 2.99 kMESF (inactive)
20 | c1ccc(-c2cccc(-c3ccccn3)n2)nc1 | 2.86 kMESF (inactive)
21 | Cc1ccc(N2C(=O)CC(Sc3ncn[nH]3)C2=O)cc1C (stereo not drawn) | 3.74 kMESF (inactive)

Row | SMILES | GFP fluorescence (kMESF), higher = increase
22 | O=C(/C=C/c1ccc(Cl)c([N+](=O)[O-])c1)c1cccnc1 | 3.17 kMESF (inactive)
23 | Oc1c(CN2CCN(c3ccc(F)cc3)CC2)cc(Cl)c2cccnc12 | 10.7 kMESF (inactive)
24 | N#Cc1ccc(N=c2ssnc2Cl)cc1 | 3.37 kMESF (inactive)
25 | CCN(CC)c1ccc2cc(-c3nc(-c4ccc(OC)cc4)cs3)c(=O)oc2c1 | 0.72 kMESF (inactive)
26 | C[n+]1ccc(/C=C/c2c[nH]c3ccccc23)cc1 | 7.26 kMESF (inactive)
27 | O=C(NC(=S)NNC(=O)c1ccc(Cl)cc1Cl)c1cccnc1 | 1.66 kMESF (inactive)
28 | O=C(NC(=S)NNC(=O)[C@H]1C[C@@H]1c1ccccc1)c1cccc(F)c1 | 7.02 kMESF (inactive)
29 | C[C@H]1C[C@@H](C)C(=O)[C@@H]([C@H](O)CC2CC(=O)NC(=O)C2)C1 | 3.18 kMESF (inactive)
30 | NC(=O)COc1ccc(C(=O)/C=C2/C(=O)Nc3ccccc32)cc1 | 3.66 kMESF (inactive)
31 | O=C(/C=C/c1ccc(Br)cc1)NC(=S)NNC(=O)c1ccco1 | 3.07 kMESF (inactive)
32 | Cc1ccc2nc(Cl)c3nnnn3c2c1 | 4.36 kMESF (inactive)
33 | Cc1cc(C(=O)COC(=O)c2ccc[nH]c2=O)c(C)n1-c1ccccc1F | 1.88 kMESF (inactive)
34 | C=CCN1C(=O)/C(=C/c2ccc(-c3ccc(F)cc3)o2)SC1=S | 8.29 kMESF (inactive)
35 | COc1ccc([N+](=O)[O-])c(S(=O)(=O)c2ccccc2)n1 | 3.41 kMESF (inactive)
36 | O=[N+]([O-])c1ccc(S(=O)(=O)c2cccc(C(F)(F)F)c2)nc1 | 4.85 kMESF (inactive)
37 | CCOc1ccc(NC2=C(Cl)C(=O)N(Cc3ccccc3)C2=O)cc1 | 3.61 kMESF (inactive)
38 | O=C1C=C(c2ccc(Cl)cc2)C(=O)N1Nc1ccccc1 | 5.31 kMESF (inactive)
39 | Cc1c(Br)c(=O)oc2c(Br)c(O)c(O)cc12 | 2.07 kMESF (inactive)
40 | CC(c1ccccc1)N1C(=O)/C(=C/c2ccncc2)SC1=S (stereo not drawn) | 2.87 kMESF (inactive)
41 | O=c1cc(CSc2ccc(Cl)cc2)nc(-c2ccccn2)[nH]1 | 3.46 kMESF (inactive)
42 | CC(C)[C@@]1(c2ccccc2)ON(c2ccccc2C(F)(F)F)C1=O | 2.37 kMESF (inactive)

Row | SMILES | GFP fluorescence (kMESF), higher = increase
43 | CS(=O)(=O)c1sc(C#N)c2c1C(=O)CC(c1ccccc1)C2 (stereo not drawn) | 4.8 kMESF (inactive)
44 | COc1cccc2sc(Nc3nc(-c4ccccn4)cs3)nc12 | 5.3 kMESF (inactive)
45 | N/C(=N\OC(=O)c1cc(Br)ccc1Cl)c1ccccn1 | 5.31 kMESF (inactive)
46 | CC(=O)Oc1oc(-c2ccccc2)nc1C=Nc1ccccc1 | 3.71 kMESF (inactive)
47 | Cc1ccc(S(=O)(=O)c2ncccc2[N+](=O)[O-])cc1 | 3.64 kMESF (inactive)
48 | O/C=c1\ccc2cccc3nc(C(F)(F)F)nc1c23 | 14.3 kMESF (inactive)
49 | Cc1cccc(N=Nc2ccc(O)c3ncccc23)c1 | 3.18 kMESF (inactive)
50 | COc1ccc(N2C(=O)/C(=C/c3cccs3)C(=O)NC2=S)cc1 | 4.01 kMESF (inactive)
51 | COc1ccc(N2CCN(C(=O)c3ccc(Br)cc3)CC2)c([N+](=O)[O-])c1 | 2.28 kMESF (inactive)
52 | O=C(O)c1cccc(S(=O)(=O)Nc2ccc(S(=O)(=O)N3CCOCC3)cc2)c1 | 2.77 kMESF (inactive)
53 | CCCN1CCc2c(sc(NC(=S)NC(=O)c3ccccc3)c2C#N)C1 | 4.04 kMESF (inactive)
54 | CC1=NNC(=O)/C1=C\c1cn(-c2ccccc2)nc1-c1ccccc1 | 3.11 kMESF (inactive)
55 | O=C1C=CC(=O)N1c1ccc(Sc2ccc([N+](=O)[O-])cc2)cc1 | 2.59 kMESF (inactive)
56 | Cc1ccc(N2C(=O)C(Cl)=C(Nc3c(C)n(C)n(-c4ccccc4)c3=O)C2=O)cc1 | 1.97 kMESF (inactive)
57 | COc1cc(/C=C2\CC/C(=C\c3cc(OC)c(O)c(OC)c3)C2=O)cc(OC)c1O | 3.25 kMESF (inactive)
58 | Cc1ccccc1N=Nc1ccc(O)c2ncccc12 | 3.51 kMESF (inactive)
59 | O=C(O)c1ccn2c(C(=O)c3ccccc3)c(-c3ccccc3)cc2c1 | 3.13 kMESF (inactive)
60 | COc1ccc(C2=CC3=C(Br)C(=O)C(C)(O)C(=O)C3=CO2)cc1 (stereo not drawn) | -0.97 kMESF (inactive)
61 | O=[N+]([O-])c1cc(O)c2ncccc2c1 | 5.96 kMESF (inactive)
62 | COc1cccc(/C=C2\C(=O)N(c3cccc(C)c3)C(=O)c3ccccc32)c1 | 4.32 kMESF (inactive)
63 | CCc1cccc2sc(N3CCN(C(=O)c4ccc([N+](=O)[O-])o4)CC3)nc12 | 0.16 kMESF (inactive)

Row | SMILES | GFP fluorescence (kMESF), higher = increase
64 | CC(=O)n1cc(C(C[N+](=O)[O-])SCCN)c2ccccc21 (stereo not drawn) | 3.64 kMESF (inactive)
65 | COc1ccc(-c2cc(C(F)(F)F)nc(S(C)(=O)=O)n2)cc1 | 5.2 kMESF (inactive)
66 | CC(C)(C)c1nnc(N/N=C/c2cc(Br)ccc2O)n(N)c1=O | 2.57 kMESF (inactive)
67 | CCc1ccc(C(=O)/C=C/c2ccc([N+](=O)[O-])o2)cc1 | 6.79 kMESF (inactive)
68 | Cc1cc(C2CCCCC2)n(O)c(=O)c1 | 5.36 kMESF (inactive)
69 | Cc1ccc2c(c1)c(/C=C/c1cc[n+](C)cc1)c(C)n2C | 9.93 kMESF (inactive)
70 | Oc1ccc(CNc2ccccc2)c2cccnc12 | 3.28 kMESF (inactive)
71 | O=C(Oc1c(Cl)cc(Cl)c2cccnc12)c1ccco1 | 9.81 kMESF (inactive)
72 | COc1ccc(N/N=C(\C#N)C(N)=O)cc1 | 1.24 kMESF (inactive)
73 | CCN1C(=O)/C(=C\C(=O)c2cccs2)c2cc(Br)ccc21 | 9.04 kMESF (inactive)
74 | C=C1C(O)[C@@H]2O[C@]3(CC[C@H](/C=C/C(C)[C@@H]4CC(C)=CC5(O[C@H](C[C@@](C)(O)C(=O)O)CCC5O)O4)O3)CC[C@H]2O[C@@H]1C(O)CC(C)[C@H]1OC2(CCCCO2)CCC1C (stereo partly drawn) | 1.77 kMESF (inactive)
75 | O=C1C=C(c2ccccc2)C(=O)N1Nc1ccccc1 | 6.2 kMESF (inactive)
76 | O=[N+]([O-])c1ccc(Sc2nc3ccccc3o2)c([N+](=O)[O-])c1 | 2.65 kMESF (inactive)
77 | O=C(/C=C/c1ccccc1[N+](=O)[O-])c1ccccc1Br | 62.3 kMESF (inactive)
78 | N/C(=N\OC(=O)c1ccccc1Cl)c1ccc(Cl)cc1 | 3.91 kMESF (inactive)
79 | Cc1ccccc1[C@]1(C)ON(c2ccccc2C(F)(F)F)C1=O | 2.17 kMESF (inactive)
80 | O=C1CC(c2ccccc2)=NN1c1nc(-c2ccccc2)cs1 | 2.83 kMESF (inactive)
81 | O=S(=O)(c1ccccc1)c1ccc(C(F)(F)F)cn1 | 2.27 kMESF (inactive)
82 | CS(=O)(=O)c1nc(-c2ccccc2)cc(C(F)(F)F)n1 | 7.24 kMESF (inactive)
83 | COc1ccc(OC)c(S(=O)(=O)ON2C(=O)c3ccccc3C2=O)c1 | -8.29 kMESF (inactive)
